Values of other authors, collected in patent US11685721B2, “Human plasma kallikrein inhibitors” (BioCryst Pharmaceuticals, Inc., priority 2014, dated 2023).

Test system: patients with hereditary angioedema (HAE)

In the case of NC(N)=NCCC[C@@H](N)C(=O)N[C@@H](CCCN=C(N)N)C(=O)N1CCC[C@H]1C(=O)N1C[C@H](O)C[C@H]1C(=O)NCC(=O)N[C@@H](Cc1cccs1)C(=O)N[C@@H](CO)C(=O)N1Cc2ccccc2C[C@@H]1C(=O)N1[C@H](C(=O)N[C@@H](CCCN=C(N)N)C(=O)O)C[C@@H]2CCCC[C@@H]21 [Icatibant], the “treating HAE” value (hereditary angioedema) is given as “effective”.
In the case of ecallantide [DX-88], the edema (patients with hereditary angioedema (HAE)) is listed as “alleviates edema”.
